Source: patent US8673857B2, “Long term potentiation with cyclic-GluR6 analogs” (Brown University, priority 2009, dated 2014)
“Also recorded” adds a separate entry of the source. Starred links: 1 amine or outer side, 2 acyl side, 3 side chain; linkers in the order of their positions; H or OH if unused. Positions of bridges follow the written chain, without caps; N, C: chain ends. Residues, ends and D or L forms follow the SMILES beside them. Chains are numbered I, II in the order given. No end group written: not given here. X1 = O=C(CCN[*:2])[*:1]; βAla = NCCC(=O)O

How the values were obtained:
[1] = Uptake into the brain post i.v.; type: in vivo; settings: hippocampus, cerebellum, periventricular nucleus of the hypothalmus, deep cerebellar nuclei, sub-cortex, retina
From the text: In addition uptake into the deep cerebellar nuclei, in the sub-cortex and the retina are noted.

[2] = system: retinal ganglion cells; assay: NMDA-induced ganglion cell death in the rat retina, intravitreal injection; type: in vivo
Experimental: Rat eyes were given an intravitreal injection containing 20 nmol of NMDA with 3 nmol CN2097 being co-administered or injected following NMDA insult at 1, 2 or 6 hrs. Retinal ganglion cell survival was assessed by counting fluorogold-labeled cells In an defined area (between 2 and 3 mm) from the center of the optic nerve head of each retina and compared with untreated (control) retinas.
Tests included 20 nmol NMDA vs 1.2 nmol CN2097/20 nmol NMDA.

[3] = system: NR2B NMDAR subunit; assay: Electrophysiological and biochemical preliminary studies
From the text: (§1) Using Fmoc-based protocols, a series of peptide ligands were synthesized that complement the PDZ-binding domain of PSD-95 with the criteria of being membrane permeable, resistant to protease activity and biologically active. The peptide KNYKKTEV, which codes for the CRIPT PDZ-3 binding motif, was cyclized between the valine (V) and threonine (T) residues via beta-alanine linkage and either myristylated (CN2180) or linked to a poly-arginine tail (CN2097; FIG. 1) to enhance its diffusion and uptake capacity by neurons in intact tissues. Binding specificity of CN2180 was tested against a PDZ-domain array consisting of 96 distinct His-tagged PDZ domains purified and spotted on a gridded nylon membrane. […] CN 2097 acts as competitive ligand for this binding site and as such is able to disrupt the normal binding of NR2B receptors to the PSD. Also, it is believed that CN2097 disrupts NR2B downstream signaling by displacing signaling effectors attached directly or indirectly to the NR2B/PSD-95 signaling complex including CaMKII. […] Without being bound by any particular theory, this effect is believed due to the disruption of apoptotic and necrotic cell signaling pathways that propagate the cell death signal.

[4] = system: NMDA receptor; assay: Whole cell patch recording of isolated NMDA EPSC, CA1 pyramidal neuron in hippocampal slices; settings: perfusion in presence of NBQX 5 μM and picrotoxin 50 μM, clamped at +40 mV, CN2097 2 μM, APV 50 μM
From the text: APV is a selective NMDA receptor antagonist.
(§2) CN 2097 is effective in synaptic plasticity and is able to lower the threshold for LTP induction, as shown FIG. 2. […] Without being bound by any particular theory, it is believed that CN 2097 acts through its ability to specifically interfere with NR2B activity and expression to change the sliding threshold for synaptic plasticity, altering the ratio of NR2A:NR2B. Similarly, antagonism of NR2B has been reported to lower the threshold for synaptic plasticity, such that LTP can be induced in response to a normally impotent stimulation with NMDA agonist. […] The cell voltage was clamped at +40 mV and synaptic responses were recorded.

[5] = system: AS mouse (Ube3am−/p+) hippocampal slices; assay: LTP in AS mouse (Ube3am-/p+) hippocampal slice, three trains of HFS; settings: CN2097 2 μM superfused 20-50 minutes, three trains of HFS 10 seconds apart at 40 minutes
Experimental: Then CN2097 2 μM was superfused from 20-50 minutes. The arrow at 40 minutes indicates three trains of High Frequency Stimuli 10 seconds apart. The HFS is 100 pulses in 1 second with an interpulse interval of 10 ms, i.e. 100 Hz. […] In AS mice this stimulation is normally unable to induce LTP (FIG. 8.). At 90-100 minutes the averaged response was 159.8+/−1.1%, n=7.
(§3) Ube3a deficient (“AS”) mice were developed previously (Jiang, Y. H. et al. Mutation of the Angelman ubiquitin ligase in mice causes increased cytoplasmic p53 and deficits of contextual learning and long-term potentiation. Neuron 21, 799-811 (1998)), were obtained through the Jackson Laboratory. Mice were bred on a 129S7 background. To obtain heterozygous mice lacking the Ube3a gene maternally (m−/p+), we crossed a heterozygous female mouse (m−/p+) with a wild-type male mouse (m+/p+). Wild type (WT) littermates (m+/p+) were used as controls.

[6] = system: retina and hippocampus; assay: Excitotoxic studies with lethal doses of NMDA
From the text: as §1

[7] = Human plasma half-life; type: in vitro ADME
[8] = system: WT mouse hippocampal slice; assay: LTP in WT mouse hippocampal slice, one sub-threshold HFS (fEPSP slope)
Experimental: FIG. 6 presents data from a WT mouse adult hippocampal slice. An arrow indicates the time point at which one sub-threshold High Frequency Stimuli (HFS, 100 pulse in 1 second every 10 ms, 100 Hz) was applied. The white box indicates the treatment with CN2097 2 μM.
as §3

[9] = system: mTOR, S6 and AKT expression pathways; assay: Western blots of in vivo injected retinas, SH-SY5Y neuroblastomas and primary cerebellar granule neurons; type: cell-based
From the text: Additionally, upregulation of CaMKII, an NMDAR-PSD-95 associated protein, is believed to be associated with synaptic plasticity. Biochemical analyses using western blots of in vivo injected retinas, cultured SH-SY5Y neuroblastomas and primary cultured mouse cerebellar granule neurons (CGN) was undertaken. Left and right eyes were given in vivo injections of phosphate buffered saline (PBS), NMDA, NMDA with CN 2097 and NMDA with CN5135, the retinas were then removed and lysed. CGNs were stimulated by a paradigm designed to mimic synaptic stimulation ([…] in ACSF) and SH-SY5Y cells were activated by nerve growth factor (NGF 50 ng/ml). […] Additionally CN2097 increased the expression CREB, which is also neuroprotective. Also observed were increases in levels of PSD-95.
CN2097 (2 μM) was tested after injection into eyes/retinas (lower left panel) applied to cell cultures for 5-30 minutes concurrently with either a synaptic stimulation and nerve growth factor (NGF) 50 ng/ml. CN2097 saw increased ERK, AKT1/2, p-S6K, p-S6, p-ERK, p-p38, p-CREB and PSD-95. Additionally, CN2097 (2 μM) inhibited p-JNK. CN2097S (szeto sequence used instead of Pol-Arginine) and CN5135 (2, 10 and […]), a structural analogue of CN2097 with disruptive alanine substitutions at the 0 and −2 ring positions (binding domain) were used a negative controls whilst tat-NR2B9c (TAT, 2 μM) was used as a positive control.

[10] = system: PI3K and AKT signaling; assay: ACPD (mGluR1 agonist) signaling with CN2097 added; type: cell-based; settings: CN2097 added to ACPD
Experimental: ACPD, an agonist of mGluR1, when CN2097 is added leads to an enhancement of PI3K and AKT signaling.

[11] = system: Schaffer Collateral-CA1 synapse; assay: Sub-threshold LTP induction at Schaffer Collateral-CA1 synapse (fEPSP); set-up: species or system adult Wistar rat; settings: for LTP induction with sub-threshold protocol: CN2097 2 μM, low intensity 1 second 100 Hz HFS that normally fails to induce LTP
From the text: It would normally induce no increase in baseline fEPSP responses (lower line).
as §2

[12] = system: PDZ domains of other MAGUKS, MUPP1, S-SCAM, Shank and spinophilin; assay: PDZ-domain array of 96 His-tagged PDZ domains; type: binding
From the text: as §1

[13] = target: T1, PDZ1-PDZ2 domains of PSD-95 (Homo sapiens, UniProt P78352); assay: PDZ-domain array of 96 His-tagged PDZ domains; type: binding
T1 construct: His
T1 sequence (P78352 65-246 limits assumed): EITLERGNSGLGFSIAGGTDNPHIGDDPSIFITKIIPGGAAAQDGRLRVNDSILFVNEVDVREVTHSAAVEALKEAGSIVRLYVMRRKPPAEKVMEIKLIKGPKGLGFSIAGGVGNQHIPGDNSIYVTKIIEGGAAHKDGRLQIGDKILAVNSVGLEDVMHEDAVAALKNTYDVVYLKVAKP
From the text: as §1

[14] = target: T2, PDZ3 domain of PSD-95 (Homo sapiens, UniProt P78352); assay: PDZ-domain array of 96 His-tagged PDZ domains; type: binding
T2 construct: His
T2 sequence (P78352 313-393 limits assumed): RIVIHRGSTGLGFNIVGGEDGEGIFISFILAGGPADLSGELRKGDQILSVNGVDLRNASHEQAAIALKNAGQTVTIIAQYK
From the text: as §1

CC(C)[C@H](NC(=O)[C@@H]1CCC(=O)NCCC(=O)NCCCC[C@H](NC(=O)[C@H](CCCCN)NC(=O)[C@H](Cc2ccc(O)cc2)NC(=O)[C@H](CC(N)=O)NC(=O)[C@H](CCCCN)NC(=O)[C@@H](N)CSSC[C@H](N)C(=O)N[C@@H](CCCNC(=N)N)C(=O)N[C@@H](CCCNC(=N)N)C(=O)N[C@@H](CCCNC(=N)N)C(=O)N[C@@H](CCCNC(=N)N)C(=O)N[C@@H](CCCNC(=N)N)C(=O)N[C@@H](CCCNC(=N)N)C(=O)N[C@@H](CCCNC(=N)N)C(N)=O)C(=O)N[C@@H]([C@@H](C)O)C(=O)N1)C(=O)O [CN2097] (I: H-CKNYKKTEV-OH / II: H-CRRRRRRR-NH2; disulfide I:1-II:1; linker I:6-I:8 via X1)
uptake into the brain [1]: uptake into the brain has also been noted
NMDA-induced TUNEL-labeling in the retina ([2]; 20 nmol NMDA vs 1.2 nmol CN2097/20 nmol NMDA): blocked
ganglion cell death with post-treatment ([2]; 20 nmol NMDA, 3 nmol CN2097 co-administered or injected 1, 2 or 6 hrs after NMDA): neuroprotective effects
NMDA-induced poly(ADP-ribosyl)ation-immunoreactivity (PAR-IR) ([2]; matched paired retinas, 20 nmol NMDA): dose dependent attenuation
NMDA-induced ganglion cell loss, fluorogold retrograde labeling ([2]; viewed 14 days post insult): provided protection
NMDA-induced loss of plasma membrane selectivity (LPMS; necrosis) ([2]; vs time matched NMDA-treated retina): blocked
specificity toward the NR2B NMDAR subunit [3]: demonstrates specificity
effect on pharmacologically isolated NMDA EPSC [4]: lack of effect
effect on pharmacologically isolated NMDA EPSC ([4]; listed as CN 2097): does not act as an antagonist
LTP, averaged response at 90-100 minutes [5]: 159.8+/−1.1%
neuroprotection against lethal doses of NMDA [6]: neuroprotective
half-life [7]: ~48 min
LTP, % of baseline fEPSP slope ([8]; 2 μM treatment combined with one sub-threshold HFS (HFS1, 100 Hz)): 187.2+/−1.034%
effect of compound alone upon baseline responses ([8]; CN2097 2 μM, between 20 and 40 minutes, before HFS): no significant observed effect
expression of CREB [9]: increased
levels of PSD-95 [9]: increases
p-JNK ([9]; 2 μM): inhibiting; also recorded: inhibited
total protein expression and phosphorylation state of pro-survival signaling proteins (CamKII, ERK, AKT1/2, p-S6K, p-S6, p-ERK, p-p38, p-CREB, PSD-95) ([9]; 2 μM, 5-30 minutes, with synaptic stimulation or NGF 50 ng/ml, or injected retinas): increases in both total protein expression and phosphorylation state; also recorded: increased
PI3K and AKT signaling with ACPD [10]: enhancement
duration of induced LTP ([11]; 2 μM CN 2097, 1 second 100 Hz HFS): over 60 minutes
LTP induction with sub-threshold protocol [11]: results in LTP induction
LTP induction with sub-threshold protocol ([11]; listed as CN 2097): induced a significant LTP

N[C@@H](CCCP(=O)(O)O)C(=O)O [APV, reference compound]
effect on pharmacologically isolated NMDA EPSC [4]: abolished the EPSC

CN2180: peptide KNYKKTEV cyclized between valine and threonine via beta-alanine linkage, myristylated (bridge (positions not given here) via βAla; also: cyclized between valine and threonine via beta-alanine linkage, myristylated, site not given here)
binding to PDZ domains of other MAGUKS and other PDZ-containing proteins [12]: did not bind
binding specificity to PDZ1-PDZ2 domains of PSD-95 [13]: high specificity
binding to PDZ3 domain of PSD-95 [14]: moderate binding
